Assay results published in patent US20150105252A1, “SUBSTITUTED PYRAZOLES AS HERBICIDES” (E I DU PONT DE NEMOURS AND COMPANY, priority 2013, published 2015).

How the values were obtained:
barley, spring = experiment: Test D postemergence; assay type: in vivo, Hordeum vulgare; conditions: scale 0 to 100
Description: (§1) Seeds of plant species selected from bluegrass (annual bluegrass, Poa annua), blackgrass (Alopecurus myosuroides), canarygrass (littleseed canarygrass, Phalaris minor), chickweed (common chickweed, Stellaria media), galium (catchweed bedstraw, Galium aparine), bromegrass, downy (downy bromegrass, Bromus tectorum), field poppy (Papaver rhoeas), field violet (Viola arvensis), foxtail, green (green foxtail, Setaria viridis), deadnettle (henbit deadnettle, Lamium amplexicaule), ryegrass, Italian (Italian ryegrass, Lolium multiflorum), kochia (Kochia scoparia), lambsquarters (Chenopodium album), oilseed rape (Brassica napus), pigweed (redroot pigweed, Amaranthus retroflexus), chamomile (scentless chamomile, Matricaria inodora), speedwell (bird's-eye speedwell, Veronica persica), barley, spring (spring barley, Hordeum vulgare), wheat, spring (spring wheat, Triticum aestivum), buckwheat, wild (wild buckwheat, Polygonum convolvulus), mustard, wild (wild mustard, Sinapis arvensis), oat, wild (wild oat, Avena fatua), radish, wild (wild radish, Raphanus raphanistrum), windgrass (Apera spica-venti), Russian thistle (Salsola kali), barley, winter (winter barley, Hordeum vulgare), and wheat, winter (winter wheat, Triticum aestivum) were planted into a silt loam soil and treated preemergence with test chemicals formulated in a non-phytotoxic solvent mixture which included a surfactant.
(§2) At the same time, these species were planted in pots containing Redi-Earth® planting medium (Scotts Company, 14111 Scottslawn Road, Marysville, Ohio 43041) comprising spaghnum peat moss, vermiculite, wetting agent and starter nutrients and treated with postemergence applications of the test chemicals formulated in the same manner. Plants ranged in height from 2 to 18 cm (1- to 4-leaf stage). Treated plants and controls were maintained in a controlled growth environment for 14 to 21 days after which time all species were compared to controls and visually evaluated. Plant response ratings, summarized in Table D, are based on a scale of 0 to 100 where 0 is no effect and 100 is complete control. A dash (-) response means no test result.

barley, winter = experiment: Test D postemergence; assay type: in vivo, Hordeum vulgare; conditions: scale 0 to 100
Description: as §1, §2

pigweed [1] = experiment: Test C preemergence; assay type: in vivo, Amaranthus retroflexus; conditions: for Pigweed plant response rating / Plant response rating, Pigweed: preemergence; for Plant response rating, Pigweed: scale 0 to 100, 0 = no effect, 100 = complete control
Summary of the method: (§3)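 Seeds were sown in a loam soil–sand blend and sprayed preemergence with compounds formulated in a non-phytotoxic solvent mixture containing surfactant. Postemergence plants, grown in peat/vermiculite medium to 2–18 cm (1- to 4-leaf stage), received the same formulation. After 13 to 15 days in a greenhouse, injury was rated visually against controls (0 = no effect, 100 = complete control).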

blackgrass = experiment: Test D postemergence; assay type: in vivo, Alopecurus myosuroides; conditions: scale 0 to 100; for Plant response rating, Blackgrass: 16 g ai/ha
Description: as §1, §2

pigweed [2] = experiment: Test D postemergence; assay type: in vivo, Amaranthus retroflexus; conditions: scale 0 to 100; for Plant response rating, Pigweed: 16 g ai/ha
Description: as §1, §2

ryegrass, Italian = experiment: Test C postemergence; assay type: in vivo, Lolium multiflorum
Summary of the method: as §3

soybean = experiment: Test C preemergence; assay type: in vivo, Glycine max; conditions: for Soybean plant response rating / Plant response rating, Soybean: preemergence; for Plant response rating, Soybean: scale 0 to 100, 0 = no effect, 100 = complete control
Summary of the method: as §3

ragweed = experiment: Test C postemergence; assay type: in vivo, Ambrosia elation
Summary of the method: as §3

rice = experiment: Test C flooded paddy test; assay type: in vivo, Oryza sativa; conditions: Flood
Summary of the method: (§4)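 Greenhouse pots flooded to 3 cm above soil at time of treatment received compound via the water, which stayed at that level.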

sedge, umbrella = experiment: Test C flooded paddy test; assay type: in vivo, Cyperus difformis; conditions: Flood
Summary of the method: as §4

ducksalad = experiment: Test C flooded paddy test; assay type: in vivo, Heteranthera limosa; conditions: Flood
Summary of the method: as §4

barnyardgrass = experiment: Test C flooded paddy test; assay type: in vivo, Echinochloa crus-galli; conditions: Flood
Summary of the method: as §4

[3] = 31 g ai/ha, scale 0 to 100 (0 no effect, 100 complete control), 13 to 15 days
[4] = 125 g ai/ha, scale 0 to 100, 0 is no effect, 100 is complete control
[5] = Postemergence, 31 g ai/ha, visually evaluated after 13 to 15 days
[6] = postemergence, 62 g ai/ha, scale 0 to 100
[7] = postemergence, 250 g ai/ha, scale 0 to 100 (0 no effect, 100 complete control)
[8] = postemergence, 125 g ai/ha, scale 0 to 100, 0 no effect, 100 complete control
[9] = 31 g ai/ha, scale 0 to 100 (0 no effect, 100 complete control)
[10] = 62 g ai/ha, scale 0 to 100 (0 no effect, 100 complete control)
[11] = 31 g ai/ha, visual rating, scale 0 to 100 (0 no effect, 100 complete control), 13 to 15 days
[12] = 62 g ai/ha, scale 0 to 100 (0 no effect, 100 complete control), 13 to 15 days
[13] = 250 g ai/ha, scale 0 to 100, 0 is no effect, 100 is complete control

Structure (SMILES): CCc1cc(C(=O)NC2CC2)nn1Cc1ccnc(C(F)(F)F)c1 [Compound 76]
- Barley, Spring plant response rating (barley, spring; Postemergence, 16 g ai/ha): 0
- Barley, Spring plant response rating (barley, spring; Postemergence, 31 g ai/ha): 0
- Barley, Spring plant response rating (barley, spring; Postemergence, 125 g ai/ha): 10
- Barley, Spring plant response rating (barley, spring; Postemergence, 250 g ai/ha): 15
- Barley, Spring plant response rating (barley, spring; postemergence, 62 g ai/ha): 5
- Barley, Winter plant response rating (barley, winter; Postemergence, 16 g ai/ha): 10
- Barley, Winter plant response rating (barley, winter; Postemergence, 31 g ai/ha): 10
- Barley, Winter plant response rating (barley, winter; Postemergence, 125 g ai/ha): 15
- Barley, Winter plant response rating (barley, winter; Postemergence, 250 g ai/ha): 20
- Barley, Winter plant response rating (barley, winter; postemergence, 62 g ai/ha): 10
- Plant response rating (scale of 0 to 100), Pigweed (pigweed [1]; Preemergence, 250 g ai/ha): 100
- Pigweed plant response rating (pigweed [1]; [3]): 100
- Plant response rating, Pigweed (pigweed [1]; 62 g ai/ha, 13 to 15 days): 100
- Pigweed plant response rating (pigweed [1]; [4]): 100
- Plant response rating, Blackgrass (blackgrass; Postemergence): 5
- Blackgrass plant response rating (blackgrass; Postemergence, 31 g ai/ha): 0
- Blackgrass plant response rating (blackgrass; Postemergence, 125 g ai/ha): 10
- Blackgrass plant response rating (blackgrass; Postemergence, 250 g ai/ha): 10
- Blackgrass plant response rating (blackgrass; postemergence, 62 g ai/ha): 5
- Plant response rating, Pigweed (pigweed [2]; Postemergence): 50
- Pigweed plant response rating (pigweed [2]; Postemergence, 31 g ai/ha): 55
- Pigweed plant response rating (pigweed [2]; Postemergence, 125 g ai/ha): 80
- Pigweed plant response rating (pigweed [2]; Postemergence, 250 g ai/ha): 80
- Pigweed plant response rating (pigweed [2]; postemergence, 62 g ai/ha): 65
- Plant response rating (scale of 0 to 100 where 0 is no effect and 100 is complete control), Ryegrass, Italian (ryegrass, Italian; [5]): 5
- Ryegrass, Italian plant response rating (ryegrass, Italian; [6]): 5
- Plant response rating, Ryegrass, Italian (ryegrass, Italian; [7]): 10
- Plant response rating, Ryegrass, Italian (ryegrass, Italian; [8]): 5
- Plant response rating (scale of 0 to 100), Soybean (soybean; Preemergence, 250 g ai/ha): 100
- Soybean plant response rating (soybean; [3]): 80
- Plant response rating, Soybean (soybean; 62 g ai/ha, 13 to 15 days): 98
- Soybean plant response rating (soybean; [4]): 98
- Plant response rating (scale of 0 to 100 where 0 is no effect and 100 is complete control), Ragweed (ragweed; [5]): 55
- Ragweed plant response rating (ragweed; [6]): 75
- Plant response rating, Ragweed (ragweed; [7]): 90
- Plant response rating, Ragweed (ragweed; [8]): 75

Structure (SMILES): O=C(NC1CC1)c1cc(CCF)n(Cc2ccnc(C(F)(F)F)c2)n1 [Compound 176]
- Barley, Spring plant response rating (barley, spring; Postemergence, 16 g ai/ha): 0
- Barley, Spring plant response rating (barley, spring; Postemergence, 31 g ai/ha): 10
- Barley, Spring plant response rating (barley, spring; Postemergence, 125 g ai/ha): 15
- Barley, Spring plant response rating (barley, spring; postemergence, 62 g ai/ha): 10
- Barley, Winter plant response rating (barley, winter; Postemergence, 16 g ai/ha): 0
- Barley, Winter plant response rating (barley, winter; Postemergence, 31 g ai/ha): 10
- Barley, Winter plant response rating (barley, winter; Postemergence, 125 g ai/ha): 20
- Barley, Winter plant response rating (barley, winter; postemergence, 62 g ai/ha): 10
- Plant response rating, Rice (rice; [9]): 0
- Plant response rating, Rice (rice; [10]): 0
- Plant response rating, Rice (rice; 125 g ai/ha, scale 0 to 100): 20
- Plant response rating, Rice (rice; 250 g ai/ha, scale 0 to 100): 20
- Pigweed plant response rating (pigweed [1]; [11]): 100
- Pigweed plant response rating (pigweed [1]; [12]): 100
- Plant response rating, Pigweed (pigweed [1]; 125 g ai/ha, 13 to 15 days): 100
- Pigweed plant response rating (pigweed [1]; [13]): 100
- Plant response rating, Blackgrass (blackgrass; Postemergence): 5
- Blackgrass plant response rating (blackgrass; Postemergence, 31 g ai/ha): 15
- Blackgrass plant response rating (blackgrass; Postemergence, 125 g ai/ha): 20
- Blackgrass plant response rating (blackgrass; postemergence, 62 g ai/ha): 15
- Plant response rating, Pigweed (pigweed [2]; Postemergence): 55
- Pigweed plant response rating (pigweed [2]; Postemergence, 31 g ai/ha): 65
- Pigweed plant response rating (pigweed [2]; Postemergence, 125 g ai/ha): 70
- Pigweed plant response rating (pigweed [2]; postemergence, 62 g ai/ha): 65
- Plant response rating, Sedge, Umbrella (sedge, umbrella; [9]): 0
- Plant response rating, Sedge, Umbrella (sedge, umbrella; [10]): 40
- Plant response rating, Sedge, Umbrella (sedge, umbrella; 125 g ai/ha, scale 0 to 100): 95
- Plant response rating, Sedge, Umbrella (sedge, umbrella; 250 g ai/ha, scale 0 to 100): 100
- Plant response rating, Ducksalad (ducksalad; [9]): 0
- Plant response rating, Ducksalad (ducksalad; [10]): 70
- Plant response rating, Ducksalad (ducksalad; 125 g ai/ha, scale 0 to 100): 95
- Plant response rating, Ducksalad (ducksalad; 250 g ai/ha, scale 0 to 100): 100
- Soybean plant response rating (soybean; [11]): 30
- Soybean plant response rating (soybean; [12]): 75
- Plant response rating, Soybean (soybean; 125 g ai/ha, 13 to 15 days): 98
- Soybean plant response rating (soybean; [13]): 98
- Plant response rating, Barnyardgrass (barnyardgrass; [9]): 0
- Plant response rating, Barnyardgrass (barnyardgrass; [10]): 0
- Plant response rating, Barnyardgrass (barnyardgrass; 125 g ai/ha, scale 0 to 100): 20
- Plant response rating, Barnyardgrass (barnyardgrass; 250 g ai/ha, scale 0 to 100): 10
